The record followed here is paper PMC10895678 (Journal of Medicinal Chemistry, 2024).

The structures appear in SMILES notation.

The assay concerns M. smegmatis. Kind of assay: Inhibition of macromolecular synthesis (radiolabeled precursor incorporation). It is filed as cell-based, Mycobacterium smegmatis. As to the method:
Inhibition of macromolecular biosynthesis was assayed by measuring the incorporation of radiolabeled precursors into DNA, RNA, protein, peptidoglycan, and fatty acids in the 10% trichloroacetic acid (TCA) extracts of cells exposed to azetidines. M. smegmatis were cultured in 7H9 media supplemented with 0.05% Tween-80 and grown to an OD600 of 0.4. Cultures (5 mL) were then transferred into sterile glass tubes and preincubated with 0× , 0.5× , 0.75× and 1 × MIC99 azetidines for 1 h at 37 °C with shaking. After preincubation, 10 μL of 500 nCi/μL [methyl-^3H]thymidine, 500 nCi/μL [5,6-^3H]uridine, 500 nCi/μL L-[4,5-^3H]leucine, 500 nCi/μL [^3H]meso-diaminopimelic acid, and 500 nCi/μL [^14C]acetic acid were added to cultures to measure synthesis of DNA, RNA, protein, peptidoglycan and lipids, respectively. All cultures were incubated for 36 h, and 100 μL samples were sacrificed at 6, 12, 24, and 36 h time points by the addition of 50 μL 30%TCA/70% ethanol in Eppendorf tubes. Tubes were incubated at room temperature for 60 min to allow for precipitation of macromolecular material. Samples were individually vacuum filtered using 0.025 μm membrane filters (VSWP01300, MF-Millipore) that were prewashed with 500 μL 70% ethanol. Samples were washed with 3 × 500 μL 5% TCA, followed by 2 × 95% ethanol. Filter papers were dried and combined with 5 mL of scintillation fluid before measuring radioactive counts.

As for `CNCC1CC(c2ccc(OC(F)(F)F)cc2)N1Cc1ccccc1OC(F)(F)F` (stereo not shown) [BGAz-005], the “loss of lipid biosynthesis ([14C]-acetic acid incorporation)” value (0.5 × MIC) was about 50%. In addition, under “1 × MIC”, the “loss of lipid biosynthesis ([14C]-acetic acid incorporation)” value is about 75% and the “reduction of incorporation of [3H]-thymidine, [3H]-uridine, [3H]-leucine” value worked out at 20%. Also, the “effect on incorporation of [3H]-thymidine, [3H]-uridine, [3H]-leucine” value (up to 0.75 × MIC) was “almost no effect”.
